Measurements from ChEMBL document CHEMBL5360622, “Leucettinibs, a Class of DYRK/CLK Kinase Inhibitors Inspired by the Marine Sponge Natural Product Leucettamine B” (J Med Chem, 2023).

Tests used:
[1] = target: Dual specificity protein kinase CLK3 (Homo sapiens, UniProt P49761); type: cell-based, Sf9
[2] = target: Dual specificity protein kinase CLK1 (Homo sapiens, UniProt P49759); type: cell-based, Sf9
[3] = target: Dual specificity protein kinase CLK2 (Homo sapiens, UniProt P49760)
[4] = target: T1, Dual specificity tyrosine-phosphorylation-regulated kinase 2 (Homo sapiens, UniProt Q92630)
T1 sequence (Q92630 whole entry): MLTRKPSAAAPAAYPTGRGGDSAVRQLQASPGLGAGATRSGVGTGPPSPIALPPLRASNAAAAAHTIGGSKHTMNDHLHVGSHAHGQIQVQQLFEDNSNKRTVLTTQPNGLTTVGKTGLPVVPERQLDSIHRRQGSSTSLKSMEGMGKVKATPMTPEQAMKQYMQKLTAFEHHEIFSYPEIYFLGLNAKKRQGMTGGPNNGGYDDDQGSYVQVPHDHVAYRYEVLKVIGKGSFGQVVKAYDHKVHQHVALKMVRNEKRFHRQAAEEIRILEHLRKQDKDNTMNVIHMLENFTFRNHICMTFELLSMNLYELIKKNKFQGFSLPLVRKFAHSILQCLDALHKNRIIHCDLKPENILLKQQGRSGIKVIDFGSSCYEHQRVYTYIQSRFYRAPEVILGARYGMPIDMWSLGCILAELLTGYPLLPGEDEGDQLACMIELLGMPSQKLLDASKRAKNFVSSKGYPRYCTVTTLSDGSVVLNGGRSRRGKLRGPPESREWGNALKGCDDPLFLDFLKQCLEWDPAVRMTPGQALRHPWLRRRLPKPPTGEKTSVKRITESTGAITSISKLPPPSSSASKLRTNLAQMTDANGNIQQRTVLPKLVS

[5] = target: Cyclin-dependent kinase 5/CDK5 activator 1 (Homo sapiens, UniProt Q00535); type: cell-based, Sf9
Chain of Cyclin-dependent kinase 5/CDK5 activator 1 (Q00535 whole entry): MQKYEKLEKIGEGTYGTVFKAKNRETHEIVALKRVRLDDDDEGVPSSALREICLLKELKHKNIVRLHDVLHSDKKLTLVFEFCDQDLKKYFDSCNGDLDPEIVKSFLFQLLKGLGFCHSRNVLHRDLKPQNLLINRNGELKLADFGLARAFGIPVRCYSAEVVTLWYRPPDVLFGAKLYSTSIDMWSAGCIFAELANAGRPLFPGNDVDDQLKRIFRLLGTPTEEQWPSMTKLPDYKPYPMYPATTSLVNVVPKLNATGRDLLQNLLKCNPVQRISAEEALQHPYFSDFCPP
Chain of Cyclin-dependent kinase 5/CDK5 activator 1 (Q15078 whole entry, further chain): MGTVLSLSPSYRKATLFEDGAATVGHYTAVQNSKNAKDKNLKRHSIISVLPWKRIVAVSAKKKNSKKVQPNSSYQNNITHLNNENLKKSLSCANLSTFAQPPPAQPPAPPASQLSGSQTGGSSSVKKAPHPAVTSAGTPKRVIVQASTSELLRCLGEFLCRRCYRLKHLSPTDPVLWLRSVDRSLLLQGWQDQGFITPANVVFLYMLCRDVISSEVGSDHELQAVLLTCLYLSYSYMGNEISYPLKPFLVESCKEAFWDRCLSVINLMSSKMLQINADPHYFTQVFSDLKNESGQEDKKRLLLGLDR

[6] = target: Glycogen synthase kinase-3 beta (Homo sapiens, UniProt P49841); type: cell-based, Sf9
Chain of Glycogen synthase kinase-3 beta (P49841 whole entry, canonical isoform): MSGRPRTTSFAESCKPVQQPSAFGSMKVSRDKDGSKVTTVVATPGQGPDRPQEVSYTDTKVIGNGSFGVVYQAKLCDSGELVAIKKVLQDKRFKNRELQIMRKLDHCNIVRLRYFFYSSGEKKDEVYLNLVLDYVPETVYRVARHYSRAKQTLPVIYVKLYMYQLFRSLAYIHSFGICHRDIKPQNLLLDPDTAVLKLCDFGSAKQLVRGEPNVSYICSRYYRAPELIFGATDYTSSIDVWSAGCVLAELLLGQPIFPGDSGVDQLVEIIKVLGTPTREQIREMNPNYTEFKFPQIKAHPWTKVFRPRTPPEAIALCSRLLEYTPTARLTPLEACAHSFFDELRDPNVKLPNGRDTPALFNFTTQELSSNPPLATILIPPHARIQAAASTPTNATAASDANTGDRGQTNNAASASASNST

[7] = target: Casein kinase I isoform epsilon (Homo sapiens, UniProt P49674)
Chain of Casein kinase I isoform epsilon (P49674 whole entry, canonical isoform): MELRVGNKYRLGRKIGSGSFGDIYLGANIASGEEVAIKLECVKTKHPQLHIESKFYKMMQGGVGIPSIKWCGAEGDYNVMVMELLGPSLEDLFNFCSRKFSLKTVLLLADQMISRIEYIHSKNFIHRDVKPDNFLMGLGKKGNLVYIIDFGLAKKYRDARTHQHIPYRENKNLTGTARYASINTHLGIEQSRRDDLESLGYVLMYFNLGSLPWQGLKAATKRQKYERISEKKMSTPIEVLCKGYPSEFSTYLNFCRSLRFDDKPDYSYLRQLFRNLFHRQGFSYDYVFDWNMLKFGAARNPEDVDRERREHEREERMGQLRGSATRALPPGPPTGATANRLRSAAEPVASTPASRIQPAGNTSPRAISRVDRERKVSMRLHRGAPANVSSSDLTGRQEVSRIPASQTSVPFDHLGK

[8] = target: T2, Dual specificity tyrosine-phosphorylation-regulated kinase 4 (Homo sapiens, UniProt Q9NR20)
T2 sequence (Q9NR20 whole entry): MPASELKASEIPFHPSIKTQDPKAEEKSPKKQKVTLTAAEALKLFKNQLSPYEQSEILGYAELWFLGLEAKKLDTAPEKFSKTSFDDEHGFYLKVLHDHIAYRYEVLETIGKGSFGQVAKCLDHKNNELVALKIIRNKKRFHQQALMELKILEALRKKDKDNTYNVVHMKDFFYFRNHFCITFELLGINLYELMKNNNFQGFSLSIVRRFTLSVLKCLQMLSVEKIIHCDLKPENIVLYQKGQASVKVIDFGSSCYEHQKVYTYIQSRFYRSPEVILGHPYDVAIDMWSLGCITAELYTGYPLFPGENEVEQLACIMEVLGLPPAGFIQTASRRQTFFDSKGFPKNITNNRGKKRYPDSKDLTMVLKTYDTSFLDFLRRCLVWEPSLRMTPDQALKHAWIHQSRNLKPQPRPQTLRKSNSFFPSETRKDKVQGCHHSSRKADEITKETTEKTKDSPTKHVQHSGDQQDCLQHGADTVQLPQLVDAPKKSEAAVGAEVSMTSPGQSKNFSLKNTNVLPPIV

[9] = target: Dual specificity protein kinase CLK4 (Homo sapiens, UniProt Q9HAZ1)
Chain of Dual specificity protein kinase CLK4 (Q9HAZ1 whole entry): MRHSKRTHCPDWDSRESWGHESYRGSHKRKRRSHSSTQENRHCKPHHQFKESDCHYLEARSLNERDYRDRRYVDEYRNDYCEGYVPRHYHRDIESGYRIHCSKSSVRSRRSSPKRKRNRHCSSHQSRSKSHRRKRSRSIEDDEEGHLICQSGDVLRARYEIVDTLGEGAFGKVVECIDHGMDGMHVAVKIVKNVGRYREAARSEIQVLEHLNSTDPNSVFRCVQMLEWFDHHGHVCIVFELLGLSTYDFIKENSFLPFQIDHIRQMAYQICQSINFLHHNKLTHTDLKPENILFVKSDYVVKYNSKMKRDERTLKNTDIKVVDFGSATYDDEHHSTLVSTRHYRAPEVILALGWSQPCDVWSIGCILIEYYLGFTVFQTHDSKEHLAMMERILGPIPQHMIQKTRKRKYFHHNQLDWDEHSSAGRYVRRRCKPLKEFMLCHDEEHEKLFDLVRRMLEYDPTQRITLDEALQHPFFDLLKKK

[10] = target: T3, Dual specificity tyrosine-phosphorylation-regulated kinase 3 (Homo sapiens, UniProt O43781)
T3 sequence (O43781 whole entry): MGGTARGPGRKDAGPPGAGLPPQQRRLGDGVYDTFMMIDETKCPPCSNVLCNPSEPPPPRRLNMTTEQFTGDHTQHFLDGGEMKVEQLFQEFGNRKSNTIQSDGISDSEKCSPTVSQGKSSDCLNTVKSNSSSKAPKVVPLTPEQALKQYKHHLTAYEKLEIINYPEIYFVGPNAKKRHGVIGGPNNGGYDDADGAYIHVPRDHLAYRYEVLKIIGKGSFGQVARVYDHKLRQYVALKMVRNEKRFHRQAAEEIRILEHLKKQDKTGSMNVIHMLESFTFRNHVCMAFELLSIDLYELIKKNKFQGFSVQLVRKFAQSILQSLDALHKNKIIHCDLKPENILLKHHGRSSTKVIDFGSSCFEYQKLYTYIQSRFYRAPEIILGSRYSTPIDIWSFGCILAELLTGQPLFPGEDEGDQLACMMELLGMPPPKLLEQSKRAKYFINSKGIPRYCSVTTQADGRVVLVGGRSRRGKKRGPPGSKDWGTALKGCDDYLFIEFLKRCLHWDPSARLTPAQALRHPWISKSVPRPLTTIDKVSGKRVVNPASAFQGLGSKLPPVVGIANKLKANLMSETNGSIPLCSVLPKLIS

Chain of Dual specificity protein kinase CLK2 (P49760 whole entry): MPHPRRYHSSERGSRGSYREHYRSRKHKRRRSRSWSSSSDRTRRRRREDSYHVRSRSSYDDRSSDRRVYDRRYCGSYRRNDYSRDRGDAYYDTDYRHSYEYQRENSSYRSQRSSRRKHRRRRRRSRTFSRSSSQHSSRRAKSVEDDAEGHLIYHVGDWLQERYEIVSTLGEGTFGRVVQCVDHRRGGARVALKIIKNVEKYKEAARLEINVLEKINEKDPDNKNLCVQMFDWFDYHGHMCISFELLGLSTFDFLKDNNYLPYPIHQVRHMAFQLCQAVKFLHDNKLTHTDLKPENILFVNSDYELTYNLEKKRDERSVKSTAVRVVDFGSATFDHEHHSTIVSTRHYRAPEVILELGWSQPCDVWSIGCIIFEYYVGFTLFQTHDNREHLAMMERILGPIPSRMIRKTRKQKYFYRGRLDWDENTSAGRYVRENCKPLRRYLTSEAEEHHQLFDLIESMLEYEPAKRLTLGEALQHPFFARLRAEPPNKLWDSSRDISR
Chain of Dual specificity protein kinase CLK1 (P49759 whole entry): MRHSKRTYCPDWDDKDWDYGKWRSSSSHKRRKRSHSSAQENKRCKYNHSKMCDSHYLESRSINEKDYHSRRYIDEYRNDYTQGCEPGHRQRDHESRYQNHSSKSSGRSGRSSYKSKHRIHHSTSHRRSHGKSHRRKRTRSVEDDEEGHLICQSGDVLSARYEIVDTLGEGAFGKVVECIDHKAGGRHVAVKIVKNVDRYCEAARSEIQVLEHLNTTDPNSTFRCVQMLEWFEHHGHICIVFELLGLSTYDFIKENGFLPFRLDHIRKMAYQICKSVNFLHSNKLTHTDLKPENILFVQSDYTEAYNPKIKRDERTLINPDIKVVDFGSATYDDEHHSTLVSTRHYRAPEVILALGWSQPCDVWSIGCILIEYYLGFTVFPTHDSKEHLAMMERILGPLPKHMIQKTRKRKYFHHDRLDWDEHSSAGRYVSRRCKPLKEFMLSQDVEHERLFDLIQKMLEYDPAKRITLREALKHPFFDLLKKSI
Chain of Dual specificity protein kinase CLK3 (P49761 whole entry): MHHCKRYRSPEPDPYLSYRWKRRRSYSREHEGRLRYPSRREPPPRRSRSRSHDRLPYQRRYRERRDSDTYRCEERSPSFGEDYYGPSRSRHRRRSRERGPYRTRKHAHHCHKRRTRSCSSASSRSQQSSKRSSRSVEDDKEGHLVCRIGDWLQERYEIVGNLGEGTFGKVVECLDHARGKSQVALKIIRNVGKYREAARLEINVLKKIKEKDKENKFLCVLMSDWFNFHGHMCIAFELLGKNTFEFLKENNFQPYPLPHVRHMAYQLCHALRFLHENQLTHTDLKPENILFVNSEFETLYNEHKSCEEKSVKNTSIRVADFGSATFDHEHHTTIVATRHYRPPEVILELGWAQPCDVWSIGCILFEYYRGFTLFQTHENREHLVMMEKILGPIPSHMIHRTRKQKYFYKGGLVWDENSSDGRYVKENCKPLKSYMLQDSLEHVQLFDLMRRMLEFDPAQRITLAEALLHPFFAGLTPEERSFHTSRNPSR

IC50 [1]	IC50 [2]	IC50 [3]	IC50 [4]	IC50 [5]	IC50 [6]	IC50 [7]	IC50 [8]	IC50 [9]	IC50 [10]	Structure (SMILES)
2100 nM	18 nM	121 nM	1720 nM	> 10000 nM	9970 nM	> 10000 nM	–	–	–	CC(C)(C)OC[C@H](NC1=N/C(=C\c2ccc3ncsc3c2)C(=O)N1)c1ccccc1
> 10000 nM	270 nM	2830 nM	> 10000 nM	> 10000 nM	> 10000 nM	> 10000 nM	> 10000 nM	172 nM	–	O=C1NC(NC2CCCCCC2)=N/C1=C\c1ccc2nnsc2c1
7030 nM	193 nM	696 nM	2500 nM	> 10000 nM	> 10000 nM	> 10000 nM	> 10000 nM	–	5730 nM	O=C1NC(Nc2cccc(C(F)(F)F)c2)=N/C1=C\c1ccc2ncsc2c1
212 nM	17 nM	183 nM	1080 nM	> 10000 nM	4570 nM	> 10000 nM	944 nM	–	873 nM	O=C1NC(NC2CC3(CCC3)C2)=N/C1=C\c1ccc2ncsc2c1
403 nM	9 nM	27 nM	433 nM	> 10000 nM	1560 nM	> 10000 nM	927 nM	–	657 nM	CC(C)C[C@H](CF)NC1=N/C(=C\c2ccc3ncsc3c2)C(=O)N1
413 nM	13 nM	110 nM	145 nM	> 10000 nM	2680 nM	> 10000 nM	987 nM	4 nM	–	CCOC[C@@H](CC(C)C)NC1=N/C(=C\c2ccc3ncsc3c2)C(=O)N1
2130 nM	55 nM	121 nM	798 nM	> 10000 nM	4120 nM	> 10000 nM	1130 nM	29 nM	–	CN1CCN(c2cnc(NC3=N/C(=C\c4ccc5ncsc5c4)C(=O)N3)cn2)CC1
1130 nM	11 nM	28 nM	795 nM	> 10000 nM	1740 nM	> 10000 nM	1700 nM	–	390 nM	CN1CC[C@@](C)(NC2=N/C(=C\c3ccc4ncsc4c3)C(=O)N2)C1=O (stereo in doubt)
546 nM	49 nM	–	4980 nM	> 10000 nM	9370 nM	> 10000 nM	6490 nM	–	745 nM	CC(C)C[C@@H](CO)NC1=N/C(=C\c2ccc3ncsc3c2)C(=O)N1
3020 nM	44 nM	304 nM	3610 nM	> 10000 nM	> 10000 nM	> 10000 nM	6000 nM	36 nM	–	C[C@@H](NC1=N/C(=C\c2ccc3ncsc3c2)C(=O)N1)C1CCCCC1
> 10000 nM	122 nM	–	8380 nM	> 10000 nM	> 10000 nM	> 10000 nM	6820 nM	–	–	COC(=O)[C@@H](Cc1ccccc1)NC1=N/C(=C\c2ccc3ncsc3c2)C(=O)N1
914 nM	17 nM	114 nM	549 nM	> 10000 nM	8360 nM	> 10000 nM	538 nM	–	531 nM	C[C@@H]1CCCC[C@H]1NC1=N/C(=C\c2ccc3ncsc3c2)C(=O)N1 (racemic)
1910 nM	883 nM	1370 nM	3280 nM	> 10000 nM	> 10000 nM	> 10000 nM	1860 nM	37 nM	–	O=C1NC(NC2CCCCC2)=N/C1=C\c1ccc2[nH]cnc2c1
1850 nM	28 nM	–	216 nM	> 10000 nM	> 10000 nM	> 10000 nM	445 nM	–	–	COC(=O)[C@H](Cc1ccccc1)NC1=N/C(=C\c2ccc3ncsc3c2)C(=O)N1
–	13 nM	–	16 nM	> 10000 nM	2600 nM	–	181 nM	–	–	O=C1NC(NC[C@@H](O)c2ccccc2)=N/C1=C\c1ccc2ncsc2c1
484 nM	19 nM	–	953 nM	> 10000 nM	2520 nM	> 10000 nM	764 nM	–	394 nM	CC(C)C[C@H](CO)NC1=N/C(=C\c2ccc3ncsc3c2)C(=O)N1
791 nM	16 nM	–	328 nM	> 10000 nM	8240 nM	> 10000 nM	–	–	560 nM	COC(=O)[C@@H](NC1=N/C(=C\c2ccc3ncsc3c2)C(=O)N1)C(C)C
1390 nM	7 nM	33 nM	263 nM	> 10000 nM	6290 nM	> 10000 nM	385 nM	–	227 nM	CC(C)C[C@@H](CF)NC1=N/C(=C\c2ccc3ncsc3c2)C(=O)N1
> 10000 nM	> 10000 nM	> 10000 nM	> 10000 nM	> 10000 nM	> 10000 nM	> 10000 nM	–	7160 nM	–	O=C1NC(NC2CCCCC2)=N/C1=C\c1ccc2scnc2c1
–	12 nM	–	417 nM	> 10000 nM	> 10000 nM	–	4320 nM	–	–	O=C1NC(NC[C@H](O)c2ccccc2)=N/C1=C\c1ccc2ncsc2c1
1280 nM	24 nM	–	–	> 10000 nM	> 10000 nM	> 10000 nM	1260 nM	–	1670 nM	O=C1NC(NC2CCOCC2)=N/C1=C\c1ccc2ncsc2c1
> 10000 nM	–	> 10000 nM	> 10000 nM	> 10000 nM	> 10000 nM	> 10000 nM	> 10000 nM	4930 nM	> 10000 nM	O=C1NC(Nc2ccc(N3CCOCC3)cc2)=N/C1=C\c1ccc2ncsc2c1
5110 nM	–	1320 nM	> 10000 nM	> 10000 nM	> 10000 nM	> 10000 nM	> 10000 nM	210 nM	> 10000 nM	CC(NC1=N/C(=C\c2ccc3ncsc3c2)C(=O)N1)C12CC3CC(CC(C3)C1)C2 (racemic)
4120 nM	–	590 nM	> 10000 nM	> 10000 nM	6770 nM	> 10000 nM	8730 nM	104 nM	1500 nM	CN(C)CC(NC1=N/C(=C\c2ccc3ncsc3c2)C(=O)N1)c1ccccc1 (racemic)
927 nM	125 nM	450 nM	1720 nM	> 10000 nM	> 10000 nM	> 10000 nM	1680 nM	–	1480 nM	CN1CC[C@](C)(NC2=N/C(=C\c3ccc4ncsc4c3)C(=O)N2)C1=O (stereo in doubt)
